{
  "source": "patent US9814736B2",
  "about": "“Use of 2-methylene-19-nor-(20S)-1α,25-dihydroxyvitamin D3 and calcimimetics to treat secondary hyperparathyroidism” (Wisconsin Alumni Research Foundation, priority 2014, dated 2017)",
  "key": {"[1]": {"test_system": "cultured bovine parathyroid cells", "details": "cited from earlier work"}, "serum PTH [2]": {"test_system": "serum PTH", "details": "uremic rats; cited from earlier work"}, "serum PTH [3]": {"test_system": "serum PTH", "details": "uremic dogs; cited from earlier work"}, "PTH [4]": {"test_system": "PTH", "assay": "Phase 2A open-label dose-ranging study of DP001 in hemodialysis patients", "assay_type": "in vivo, human", "details": "dialysis patients, orally 3 times weekly for 4 weeks", "experimental": "FIG. 1. Change in plasma iPTH (%) versus concentration of DP001 (2MD). Chronic kidney disease—stage 5 patients were given DP001 at the indicated dose orally 3 times weekly for 4 weeks. Data are presented as mean±SEM. Plasma iPTH levels were measured using the Immulite Intact iPTH Assay from Siemens Healthcare Diagnostics.\nFIG. 2. Safety parameter versus concentration of DP001 (2MD) for patients of FIG. 1. Data are presented as mean (standard deviation (SD)).\nA Phase 2A, open-label, dose-ranging study of DP001 in hemodialysis patients was conducted to determine a starting dose of DP001 for the Phase 2B, randomized, placebo-controlled study described in this Example. […] (See FIGS. 1 and 2). Based on the results in FIGS. 1 and 2, an efficacious and safe starting dose of 440 ng was chosen. Data are presented as mean±SEM. Plasma iPTH levels were measured using the Immulite Intact iPTH Assay from Siemens Healthcare Diagnostics."}, "PTH [5]": {"test_system": "PTH", "assay": "Phase 2B double-blind, randomized, placebo-controlled study in hemodialysis patients: efficacy (serum iPTH)", "assay_type": "in vivo, human", "experimental": "FIG. 3. Study schema for study participants. Participants discontinued use of the active vitamin D analogue (AVD) and cinacalcet (if applicable) prior to a washout period and subsequent administration of placebo or DP001 (440 ng, 3×/wk, for up to 12 weeks).\nFIG. 6. Percentage of subjects achieving primary endpoint of two consecutive ≧30% decrease from his/her averaged baseline iPHT level during the 12-week treatment period. Pre-dialysis serum iPTH levels were measured using the Access Intact iPTH Assay from Beckman Coulter (p<0.0001, Fisher's exact test).\nFIG. 7. Secondary efficacy endpoint as measured as the mean percentage change in serum iPTH from the averaged baseline value to the average of the last 2 on-treatment values. Data are presented as mean±SEM. p<0.0001, One-way ANOVA.\n(§1) Subjects were administered DP001 (2MD) or placebo accordingly the study schema of FIG. 3. Subject disposition is illustrated in FIG. 4. As indicated, 129 subject were screened. Of these, 62 were enrolled and 67 were screen failures. Of the 62 enrollees, 28 were administered a placebo and 34 were administered DP001 (440 ng, 3×/wk for up to 12 weeks). Of the 28 enrollees who were administered the placebo, 22 completed the 12 week study and 6 discontinued for reasons illustrated. Of the 34 enrollees who were administered DP001, 31 completed the 12 week study and 3 discontinued for reasons illustrated.\nThe Primary Efficacy Endpoint was the proportion of subjects who achieved two consecutive ≧30% decrease from his/her Averaged Baseline iPTH level during the 12-week treatment period. (See FIG. 6). Pre-dialysis serum iPTH levels were measured using the Access Intact iPTH Assay from Beckman Coulter (p<0.0001, Fisher's exact test).\nThe secondary efficacy endpoint was the mean percentage change in serum iPTH from the Averaged Baseline value to the average of the last 2 on-treatment values. Data are presented in FIG. 7 as mean±SEM. p<0.0001, One-way ANOVA."}, "[6]": {"assay": "Phase 2B double-blind, randomized, placebo-controlled study in hemodialysis patients: safety", "assay_type": "in vivo, human", "experimental": "FIG. 9. Study enrollees exceeding safety threshold values for iPTH, Ca, and P.\nFIG. 10. Number of adverse events (AEs) and serious adverse events (SAEs) for study enrollees.\nas §1\nThe remaining 8 subjects were only dose-adjusted downward, indicating a starting dose lower than 440 ng would have been sufficient to suppress PTH. […] Only one patient receiving DP001 (2MD) had two consecutive corrected serum calcium values>10.5 mg/dL."}, "[7]": {"test_system": "MRL/lpr mouse model of systemic lupus erythematosus", "details": "cited from earlier work"}},
  "note": "“Also recorded” adds a separate entry of the source. Read-outs that look alike come from different tables or passages of the source.",
  "data": [
    {"smiles": "C=C1/C(=C\\C=C2/CCC[C@]3(C)C([C@H](C)CC#CC(C)(C)O)=CC[C@@H]23)C[C@@H](O)C[C@@H]1O", "note": "[1,25-(OH)2-16-ene-23-yne-D3]", "values": [
      {"measurement": "suppression of PTH secretion relative to calcitriol", "setting": "[1]", "result": "nearly as effective as calcitriol"}
    ]},
    {"smiles": "C=C1C(=CC=C2CCCC3(C)C2CCC3C(C)CCCCCC(C)(C)O)CC(O)CC1O", "note": "(stereo not shown) [1,25-(OH)2-24-dihomo-D3]", "values": [
      {"measurement": "suppression of PTH secretion relative to calcitriol", "setting": "[1]", "result": "nearly as effective as calcitriol"}
    ]},
    {"smiles": "C=C1C(=CC=C2CCCC3(C)C2CCC3C(C)C=CCCCCC(C)(C)O)CC(O)CC1O", "note": "(stereo not shown) [1,25-(OH)2-24-trihomo-22-ene-D3]", "values": [
      {"measurement": "suppression of PTH secretion relative to calcitriol", "setting": "[1]", "result": "nearly as effective as calcitriol"}
    ]},
    {"smiles": "C=C1/C(=C\\C=C2/CCC[C@]3(C)[C@@H]([C@H](C)OCCC(C)(C)O)CC[C@@H]23)C[C@@H](O)C[C@@H]1O", "note": "[22-oxacalcitriol]", "values": [
      {"measurement": "suppression of PTH secretion relative to calcitriol", "setting": "[1]", "result": "nearly as effective as calcitriol"},
      {"measurement": "suppression of serum PTH", "setting": "serum PTH [2]", "result": "suppress serum PTH"},
      {"measurement": "suppression of serum PTH", "setting": "serum PTH [3]", "result": "suppress serum PTH"}
    ]},
    {"smiles": "C=C1[C@H](O)CC(=C/C=C2\\CCC[C@@]3(C)C2CCC3[C@@H](C)CCCC(C)(C)O)C[C@H]1O", "note": "(stereo partly drawn) [DP001, 2-methylene-19-nor-(20S)-1α,25-dihydroxyvitamin D3]", "values": [
      {"measurement": "change in serum calcium", "setting": "PTH [4]", "result": "without changing serum calcium"},
      {"measurement": "suppression of PTH (plasma iPTH)", "setting": "PTH [4]", "result": "suppresses PTH in dialysis patients in a dose-dependent fashion"},
      {"measurement": "subjects achieving primary endpoint (two consecutive ≧30% decrease from averaged baseline iPTH)", "setting": "PTH [5]; CKD-5D, 3x weekly oral, starting dose 440 ng, 12-week treatment, p<0.0001", "result": "78 % of subjects"},
      {"measurement": "reduction of serum iPTH (secondary endpoint: mean percentage change from averaged baseline)", "setting": "PTH [5]; CKD-5D, 3x weekly oral, starting dose 440 ng, by 12 weeks, p<0.0001", "result": 46, "unit": "%"},
      {"measurement": "PTH lowering in subjects previously treated with AVD and cinacalcet (calcimimetic)", "setting": "PTH [5]; DP001 alone, CKD-5D patients previously on cinacalcet", "result": "effectively reduced PTH levels; also recorded: successfully treats SHPT in patients previously taking a calcimimetic"},
      {"measurement": "serum calcium values", "setting": "[6]; 12-week treatment", "result": "remained in the normal range"},
      {"measurement": "patients with two consecutive corrected serum calcium values >10.5 mg/dL", "setting": "[6]; 34 enrollees on DP001", "result": "one"},
      {"measurement": "subjects that reached the safety threshold for PTH", "setting": "[6]; 34 enrollees on DP001, 440 ng 3x/wk up to 12 weeks", "result": 14, "unit": "subjects"},
      {"measurement": "adverse event reporting versus placebo", "setting": "[6]; between treatment groups", "result": "no significant differences in adverse event reporting between treatment groups"},
      {"measurement": "patients surpassing corrected-serum calcium and phosphorus product safety threshold", "setting": "[6]; both had high serum phosphorus at baseline", "result": "two"},
      {"measurement": "serious adverse events (SAEs) related to drug", "setting": "[6]; judged by investigators", "result": "No serious adverse events (SAEs) were judged by the investigators to be related to DP001"}
    ]},
    {"smiles": "C=C1/C(=C\\C=C2/CCC[C@]3(C)[C@@H]([C@H](C)CCCC(C)(C)O)CC[C@@H]23)C[C@@H](O)C[C@@H]1O", "note": "[calcitriol, 1α,25-(OH)2D3]", "values": [
      {"measurement": "hypercalcemia", "setting": "[7]; accompanying calcitriol treatment", "result": "severe hypercalcemia always accompanied this treatment"},
      {"measurement": "proteinuria", "setting": "[7]; calcitriol administered through the diet", "result": "completely prevents proteinuria"}
    ]}
  ]
}
